2 compounds from patent US11020408B2, “Polymer composed of repeat units having a biologically active molecule attached thereto via a pH-sensitive bond” (SPIREA LIMITED, priority 2014, dated 2021) can be followed below.

The test system of the assay is Mycobacterium bovis BCG-lux grown in human monocyte-derived macrophages. The format is cell-based.

Turning to `CC[C@@H](CO)NCCN[C@@H](CC)CO` [EMB, ethambutol], the “effect on BCG-lux viability (in words)” value was “did not reduce BCG-lux viability”.

With `NNC(=O)c1ccncc1` [INH, isoniazid], the “antibiotic efficacy (in words)” value is “equivalent to the antibiotic efficacy of E80 nanoparticles”, the “antimycobacterial activity (in words)” value is recorded as “no antimycobacterial activity”, the “increase of BCG-lux bioluminescence compared to untreated cells” value is given as 32% and the “reduction of BCG-lux bioluminescence” value amounted to 53%. The “viability lower than control cells” value is given as 15%.
